Data reported in patent publication US20140039008A1, “METHODS FOR THE ADMINISTRATION OF ILOPERIDONE” (VANDA PHARMACEUTICALS, INC., priority 2004, published 2014).
Several values for one entry are separate records, joined by “and”; a condition that tells them apart may be missing. Equal values may be shown once. Marks after values point to notes of the source that are not given here.

Legend:
patients [1] = assay: placebo-controlled Phase III studies of iloperidone, QTcF change; assay type: in vivo, human; settings: for mean change in the QTcF: most recent study
Experimental: Iloperidone is a benzisoxazole-piperidinyl derivative, currently in development for the treatment of CNS disorders. […] At lower doses of iloperidone (4 mg-16 mg) QTcF prolongation was minimal (0.1-5 msec). In the most recent study, a greater prolongation was observed when higher doses of iloperidone (20-24 mg/day) were studied. The mean change in the QTcF at doses 20-24 mg/day was 8.5 msec, and 4.6 msec in the 12-16 mg/day dose range in this study.

patients [2] = assay: Example 1: QTc change from baseline after iloperidone by CYP2D6 genotype or metabolite ratio; assay type: in vivo, human; settings: for QTc change at Period 2: after CYP2D6 inhibitor
Excerpt: The research leading to the present invention was designed to examine the effect of different doses of iloperidone relative to the effect of ziprasidone and quetiapine on QTc duration under carefully controlled conditions. To further evaluate the possible relationship between exposure to iloperidone and the comparators to QTc duration, reassessment after pharmacological inhibition of the principle metabolic pathways for each drug, under steady-state conditions, was also planned.
The addition of metabolic inhibitors in this study therefore allowed for an evaluation of the effect of increasing blood-concentration of iloperidone and/or its metabolites on QT duration. More specifically, this study allowed for an evaluation of the effect of iloperidone on QTc before and after the addition of the CYP2D6 inhibitor, paroxetine, as well as before and after the addition of the CYP3A4 inhibitor, ketoconazole.
The 128 individuals that participated were a good representation of the total sample of 165 individuals that participated in the trial. 22 of 29 total were from the iloperidone 8 mg bid group, 30 of 34 were from the iloperidone 12 mg bid group, 22 of 31 from the 24 mg qd group, 3 of 5 of the risperidone group, 28 of 33 of the ziprazidone group, and 23 of 33 of the quetiapine group.
In order to understand whether the difference in concentration of P88 at Period 1 Tmax was relevant to the increases in QTc after the addition of the inhibitors, the observed mean of P88 for the CYP2D6G1846A AG group was used to divide all individuals into two classes. The first includes individuals with P88 concentrations at Period 3, after the addition of both inhibitors, of equal to or less than 34 ng/mL and the second class includes individuals with P88 concentration greater than 34 ng/mL. The two classes were then compared in regards to the QTc change from baseline at Period 3. Using an ANOVA statistic for the first class […] (n=55) the QTc mean change from baseline in Period 3 was 22.7 msec and that for P88≦34 (n=12) the mean QTc for the same period was 7.7 msec.
While the results for some groups are not statistically significant, they do indicate a trend supporting the hypothesis that QTc prolongation is correlated to P88/P95 ratio. Similar results were obtained when cutoff ratios of 3.0 and 4.0 were analyzed, providing further support to the hypothesis that the extent of QTc prolongation a patient may experience after treatment can be predicted by measuring P88 and P95 blood levels.
Similar results were observed when considering QTc correlation to the (iloperidone+P88)/P95 ratio. […] While the results for some groups are not statistically significant, they do indicate a trend supporting the hypothesis that QTc prolongation is correlated to (iloperidone+P88)/P95 ratio. Indeed, when cutoff ratios of 3 and higher were analyzed, similar results were obtained providing further support to the hypothesis that the extent of QTc prolongation a patient may experience after treatment can be predicted by measuring iloperidone, P88 and P95 blood levels.

patients [3] = assay: Example 2: QTcF change from baseline in iloperidone-treated patients; assay type: in vivo, human
Excerpt: From the 300 iloperidone-treated patients initially genotyped for the CYP2D6*4 and * 10 variants (VP-VYV-683-3101), 222 remaining DNA samples were used for this extended pharmacogenomic analysis. One patient was excluded from the analysis due to inconsistent results for the CYP2D6 allele *4 generated by Quest Diagnostics Central Laboratory (Collegeville, Pa.) and Cogenics (Morrisville, N.C.). Pharmacokinetic data of the (iloperidone+P88)/P95 ratio was available for 168 of these patients. QT measurement at Day 14 and 28 was available for 169 and 146 patients respectively.
Analyses were performed on observed case data using an ANCOVA model with the baseline value as a covariate for the change from baseline in QTc (Fridericia formula) and using an ANOVA model for iloperidone blood exposure at Day 14 and Day 28. Linkage disequilibrium analysis was performed using Haploview v4.0 (Barrett et al, 2005).

[4] = in vivo
[5] = in vivo; remark: listed apart in the source

In the case of `COc1cc(C(C)=O)ccc1OCCCN1CCC(c2noc3cc(F)ccc23)CC1` [iloperidone, 1-[4-[3-[4-(6-fluoro-1,2-benzisoxazol-3-yl)-1-piperidinyl]propoxy]-3-methoxyphenyl]ethanone], the “mean change in the QTcF” value (patients [1]; 12-16 mg/day dose range) is reported as 4.6 ms, the “mean change in the QTcF” value (patients [1]; 20-24 mg/day) is reported as 8.5 ms and the QTcF prolongation (patients [1]; lower doses 4 mg-16 mg) is reported as 0.1 to 5 ms. For the same molecule, the “LSMean QTc change from Baseline 8 mg bid” value (patients [2]; (ILO + P88)/P95 ratio <3) was 7.2 (n = 23), the “LSMean QTc change from Baseline 12 mg bid” value (patients [2]; (ILO + P88)/P95 ratio <3) was 8.7 (n = 31) and the “LSMean QTc change from Baseline 8 + 12 mg bid” value (patients [2]; (ILO + P88)/P95 ratio <3) was 8.3 (n = 54). The “LSMean QTc change from Baseline 24 qd” value (patients [2]; (ILO + P88)/P95 ratio <3) was 14.4 (n = 24), the “LSMean QTc change from Baseline All Treatment Groups” value (patients [2]; (ILO + P88)/P95 ratio <3) was 10.424 (n = 78) and the “LSMean QTc change from Baseline 8 mg bid” value (patients [2]; (ILO + P88)/P95 ratio >3) was 21.3 (n = 5). The “LSMean QTc change from Baseline 12 mg bid” value (patients [2]; (ILO + P88)/P95 ratio >3) was 15.2 (n = 3), the “LSMean QTc change from Baseline 8 + 12 mg bid” value (patients [2]; (ILO + P88)/P95 ratio >3) was 17.3 (n = 8) and the “LSMean QTc change from Baseline 24 qd” value (patients [2]; (ILO + P88)/P95 ratio >3) was 30.5 (n = 5). For the same molecule, the “LSMean QTc change from Baseline All Treatment Groups” value (patients [2]; (ILO + P88)/P95 ratio >3) was 20.031 (n = 13), the “QTc change at Period 1” value (patients [2]; CYP2D6C100T CC, 8 mg bid) was 7.8 (17) and the “QTc change at Period 2” value (patients [2]; CYP2D6C100T CC, 8 mg bid) was 11.7 (16). The “QTc change at Period 1” value (patients [2]; CYP2D6C100T CC, 12 mg bid) was 11.8 (23), the “QTc change at Period 2” value (patients [2]; CYP2D6C100T CC, 12 mg bid) was 14.5 (21) and the “QTc change at Period 1” value (patients [2]; CYP2D6C100T CC, 24 mg qd) was 9.5 (14). The “QTc change at Period 2” value (patients [2]; CYP2D6C100T CC, 24 mg qd) was 16.4 (15), the “QTc change at Period 1” value (patients [2]; CYP2D6C100T CT, 8 mg bid) was 2.9 (2) and the “QTc change at Period 2” value (patients [2]; CYP2D6C100T CT, 8 mg bid) was 12.5 (2). For the same molecule, the “QTc change at Period 1” value (patients [2]; CYP2D6C100T CT, 12 mg bid) was 5.8 (6), the “QTc change at Period 2” value (patients [2]; CYP2D6C100T CT, 12 mg bid) was 8.7 (6) and the “QTc change at Period 1” value (patients [2]; CYP2D6C100T CT, 24 mg qd) was 19.0 (5). For the same molecule, the “QTc change at Period 2” value (patients [2]; CYP2D6C100T CT, 24 mg qd) was 20.6 (5), the “QTc change at Period 1” value (patients [2]; CYP2D6C100T TT, 8 mg bid) was −8.4 (1) and the “QTc change at Period 2” value (patients [2]; CYP2D6C100T TT, 8 mg bid) was −0.7 (1). For the same molecule, the “QTc change at Period 1” value (patients [2]; CYP2D6C100T TT, 12 mg bid) was 17.7 (1), the “QTc change at Period 2” value (patients [2]; CYP2D6C100T TT, 12 mg bid) was 25.0 (1) and the “QTc change at Period 1” value (patients [2]; CYP2D6C100T TT, 24 mg qd) was 38.4 (1). The “QTc change at Period 2” value (patients [2]; CYP2D6C100T TT, 24 mg qd) was 28.4 (1), the “QTc change at Period 1” value (patients [2]; CYP2D6G1846A AA, 12 mg bid) was 17.7 (1)^a and the “QTc change at Period 2” value (patients [2]; CYP2D6G1846A AA, 12 mg bid) was 25.0 (1). For the same molecule, the “QTc change at Period 1” value (patients [2]; CYP2D6G1846A AA, 24 mg qd) was 38.4 (1), the “QTc change at Period 2” value (patients [2]; CYP2D6G1846A AA, 24 mg qd) was 28.4 (1) and the “QTc change at Period 1” value (patients [2]; CYP2D6G1846A AG, 8 mg bid) was −0.8 (3). The “QTc change at Period 2” value (patients [2]; CYP2D6G1846A AG, 8 mg bid) was 8.1 (3), the “QTc change at Period 1” value (patients [2]; CYP2D6G1846A AG, 12 mg bid) was 5.8 (6) and the “QTc change at Period 2” value (patients [2]; CYP2D6G1846A AG, 12 mg bid) was 8.7 (6). The “QTc change at Period 1” value (patients [2]; CYP2D6G1846A AG, 24 mg qd) was 19.0 (5), the “QTc change at Period 2” value (patients [2]; CYP2D6G1846A AG, 24 mg qd) was 20.6 (5) and the “QTc change at Period 1” value (patients [2]; CYP2D6G1846A GG, 8 mg bid) was 7.8 (17). The “QTc change at Period 2” value (patients [2]; CYP2D6G1846A GG, 8 mg bid) was 11.7 (18), the “QTc change at Period 1” value (patients [2]; CYP2D6G1846A GG, 12 mg bid) was 11.8 (23) and the “QTc change at Period 2” value (patients [2]; CYP2D6G1846A GG, 12 mg bid) was 14.5 (21). The “QTc change at Period 1” value (patients [2]; CYP2D6G1846A GG, 24 mg qd) was 14.0 (14), the “QTc change at Period 2” value (patients [2]; CYP2D6G1846A GG, 24 mg qd) was 16.4 (15) and the “LSMean QTc change from Baseline 8 mg bid” value (patients [2]; P88/P95 ratio <2) was 7.2 (n = 23). The “LSMean QTc change from Baseline 12 mg bid” value (patients [2]; P88/P95 ratio <2) was 8.7 (n = 31), the “LSMean QTc change from Baseline 8 + 12 mg bid” value (patients [2]; P88/P95 ratio <2) was 8.3 (n = 54) and the “LSMean QTc change from Baseline 24 qd” value (patients [2]; P88/P95 ratio <2) was 13.9 (n = 24). The “LSMean QTc change from Baseline All Treatment Groups” value (patients [2]; P88/P95 ratio <2) was 10.244 (n = 78), the “LSMean QTc change from Baseline 8 mg bid” value (patients [2]; P88/P95 ratio >2) was 21.3 (n = 5) and the “LSMean QTc change from Baseline 12 mg bid” value (patients [2]; P88/P95 ratio >2) was 17.4 (n = 3). For the same molecule, the “LSMean QTc change from Baseline 8 + 12 mg bid” value (patients [2]; P88/P95 ratio >2) was 18.3 (n = 8), the “LSMean QTc change from Baseline 24 qd” value (patients [2]; P88/P95 ratio >2) was 29.4 (n = 5) and the “LSMean QTc change from Baseline All Treatment Groups” value (patients [2]; P88/P95 ratio >2) was 21.111 (n = 13). For the same molecule, the “QTc mean change from baseline in Period 3” value (patients [2]; individuals with P88>34 ng/mL at Period 3, after addition of both inhibitors) was 22.7 ms, the “QTc mean change from baseline in Period 3” value (patients [2]; individuals with P88≦34 ng/mL at Period 3, after addition of both inhibitors) was 7.7 ms and the “QTcF change, LS Squares Mean QTcF change from baseline” value (from here on “QTcF change”) (patients [3]; Day 14, 1 or 2 non-functional CYP2D6 alleles) was 16.3 msec and 16.3 (N = 59) msec. The “QTcF change” value (patients [3]; Day 14, 2 functional CYP2D6 alleles) was 9.7 msec and 9.7 (N = 110) msec, the “QTcF change” value (patients [3]; Day 14, (iloperidone+P88)/P95 ratio >1) was 16.0 msec and 16.0 (N = 99) msec and the “QTcF change” value (patients [3]; Day 14, (iloperidone+P88)/P95 ratio ≦1) was 7.9 msec and 7.9 (N = 127) msec. For the same molecule, the “QTcF change” value (patients [3]; Day 28, 1 or 2 non-functional CYP2D6 alleles) was 11.4 msec and 11.4 (N = 56) msec, the “QTcF change” value (patients [3]; Day 28, 2 functional CYP2D6 alleles) was 4.4 msec and 4.4 (N = 90) msec and the “QTcF change” value (patients [3]; Day 28, (iloperidone+P88)/P95 ratio >1) was 10.1 msec and 10.1 (N = 79) msec. The “QTcF change” value (patients [3]; Day 28, (iloperidone+P88)/P95 ratio ≦1) was 4.8 msec and 4.8 (N = 119) msec, the “increase of the area under the curve (AUC)” value [4] was 131% and the “increase in the concentrations” value [5] was 38-58%.
